The assay concerns the target T1, BCL6 (Homo sapiens, UniProt P41182).
T1 construct: endogenous in cells; host or cells: T47D breast cancer epithelial cells
Kind of assay: Immunofluorescence protocol for high content imaging of BCL6 (degradation) in T47D cells, 3 days compound treatment. Type of assay: cell-based. The following applies: for DC50: read-out: Mean DC50 (nM)* category; for Dmax: read-out: Mean Dmax (%)** category. Put shortly:
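For degradation, compound series (3-fold, 11 points, top 0.1 or 1 μM final) were added to adherent T47D cultures for 3 days. BCL6 immunostaining used a rabbit antibody at 1:300 and an Alexa-488 secondary, with imaging at 10× magnification.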

The mark [1] stands for this setting: T47D cells, 3 days compound treatment.

Read-outs that look alike come from different tables or passages of the source.

Broadly, the DC50 is the concentration giving 50% degradation. The Dmax is the greatest extent of degradation seen. With `CNC(=O)COc1cc2cc(Nc3nc(N4CCC(F)(CN5CCC6(CC5)CCN(c5cccc7c5C(=O)N(C5CCC(=O)NC5=O)C7=O)CC6)CC4)ncc3Cl)ccc2n(C(C)C)c1=O` (centres unmarked) [Compound 62, 2-{[6-({5-chloro-2-[4-({9-[2-(2,6-dioxopiperidin-3-yl)-1,3-dioxo-2,3-dihydro-1H-isoindol-4-yl]-3,9-diazaspiro[5.5]undecan-3-yl}methyl)-4-fluoropiperidin-1-yl]pyrimidin-4-yl}amino)-2-oxo-1-(propan-2-yl)-1,2-dihydroquinolin-3-yl]oxy}-N-methylacetamide], under setting [1], the DC50 was < 10 nM and the Dmax was ≥ 70%.

Turning to `CNC(=O)COc1cc2cc(Nc3nc(N4CCC(O[C@H]5C[C@H](N6CCC(c7ccc8c(c7F)CN(C7CCC(=O)NC7=O)C8=O)CC6)C5)CC4)ncc3Cl)ccc2n(C(C)C)c1=O` (some centres unmarked) [Compound 81, 2-({6-[(5-chloro-2-{4-[(1r,3r)-3-{4-[2-(2,6-dioxopiperidin-3-yl)-4-fluoro-1-oxo-2,3-dihydro-1H-isoindol-5-yl]piperidin-1-yl}cyclobutoxy]piperidin-1-yl}pyrimidin-4-yl)amino]-2-oxo-1-(propan-2-yl)-1,2-dihydroquinolin-3-yl}oxy)-N-methylacetamide], under setting [1], the DC50 was < 10 nM and the Dmax lay in the range of 50 to 70%.

For `CNC(=O)COc1cc2cc(Nc3nc(N4CCC(CN5CCC6(CC5)CC5(CN(c7cccc8c7C(=O)N(C7CCC(=O)NC7=O)C8=O)C5)C6)CC4)ncc3Cl)ccc2n(C(C)C)c1=O` (centres unmarked) [Compound 374, 2-{[6-({5-chloro-2-[4-({2-[2-(2,6-dioxopiperidin-3-yl)-1,3-dioxo-2,3-dihydro-1H-isoindol-4-yl]-2,9-diazadispiro[3.1.5^6.1^4]dodecan-9-yl}methyl)piperidin-1-yl]pyrimidin-4-yl}amino)-2-oxo-1-(propan-2-yl)-1,2-dihydroquinolin-3-yl]oxy}-N-methylacetamide], the half-maximal degradation concentration (DC50) was < 10 nM. The Dmax (T47D) was ≥ 70%.

`CNC(=O)COc1cc2cc(Nc3nc(N4CCOC5(CN(CC6CCN(c7ccc8c(c7)C(=O)N(C7CCC(=O)NC7=O)C8=O)CC6)C5)C4)ncc3Cl)ccc2n(C(C)C)c1=O` (centres unmarked) [Compound 142, 2-{[6-({5-chloro-2-[2-({1-[2-(2,6-dioxopiperidin-3-yl)-1,3-dioxo-2,3-dihydro-1H-isoindol-5-yl]piperidin-4-yl}methyl)-5-oxa-2,8-diazaspiro[3.5]nonan-8-yl]pyrimidin-4-yl}amino)-2-oxo-1-(propan-2-yl)-1,2-dihydroquinolin-3-yl]oxy}-N-methylacetamide]: the half-maximal degradation concentration (DC50) under setting [1] was ≥ 100 nM.

Turning to `CNC(=O)COc1cc2cc(Nc3nc(N4CCN(CC5CCC6(CC5)CN(c5cc(F)cc7c5CN(C5CCC(=O)NC5=O)C7=O)C6)CC4)ncc3Cl)ccc2n(C(C)C)c1=O` (centres unmarked) [Compound 315, 2-{[6-({5-chloro-2-[4-({2-[2-(2,6-dioxopiperidin-3-yl)-6-fluoro-1-oxo-2,3-dihydro-1H-isoindol-4-yl]-2-azaspiro[3.5]nonan-7-yl}methyl)piperazin-1-yl]pyrimidin-4-yl}amino)-2-oxo-1-(propan-2-yl)-1,2-dihydroquinolin-3-yl]oxy}-N-methylacetamide], the half-maximal degradation concentration (DC50) was < 10 nM. In addition, for the setting “T47D”, the Dmax lay in the range of 50 to 70%.

Turning to `CNC(=O)COc1cc2cc(Nc3nc(N4CCN(C(C)(C)C5CCN(c6cccc7c6CN(C6CCC(=O)NC6=O)C7=O)CC5)CC4)ncc3Cl)ccc2n(C(C)C)c1=O` (centres unmarked) [Compound 104, 2-{[6-({5-chloro-2-[4-(2-{1-[2-(2,6-dioxopiperidin-3-yl)-1-oxo-2,3-dihydro-1H-isoindol-4-yl]piperidin-4-yl}propan-2-yl)piperazin-1-yl]pyrimidin-4-yl}amino)-2-oxo-1-(propan-2-yl)-1,2-dihydroquinolin-3-yl]oxy}-N-methylacetamide], under setting [1], the DC50 was < 10 nM and the Dmax was 50 to 70%.

For the compound `CNC(=O)COc1cc2cc(Nc3nc(N4CCC(O[C@H]5C[C@H](N6CCC(c7ccc8c(c7F)[C@H](C)N(C7CCC(=O)NC7=O)C8=O)CC6)C5)CC4)ncc3Cl)ccc2n(C(C)C)c1=O` (stereo partly drawn) [Compound 291, 2-({6-[(5-chloro-2-{4-[(1r,3r)-3-{4-[(3S)-2-(2,6-dioxopiperidin-3-yl)-4-fluoro-3-methyl-1-oxo-2,3-dihydro-1H-isoindol-5-yl]piperidin-1-yl}cyclobutoxy]piperidin-1-yl}pyrimidin-4-yl)amino]-2-oxo-1-(propan-2-yl)-1,2-dihydroquinolin-3-yl}oxy)-N-methylacetamide], the half-maximal degradation concentration (DC50) was < 10 nM. In addition, for the setting “T47D”, the greatest degradation seen (Dmax) is ≥ 70%.

For the compound `CNC(=O)COc1cc2cc(Nc3nc(N4CCC(CN5CCC6(CCN(c7cc(F)cc8c7C(=O)N(C7CCC(=O)NC7=O)C8=O)C6)C5)CC4)ncc3Cl)ccc2n(C(C)C)c1=O` (centres unmarked) [Compound 138, 2-{[6-({5-chloro-2-[4-({7-[2-(2,6-dioxopiperidin-3-yl)-6-fluoro-1,3-dioxo-2,3-dihydro-1H-isoindol-4-yl]-2,7-diazaspiro[4.4]nonan-2-yl}methyl)piperidin-1-yl]pyrimidin-4-yl}amino)-2-oxo-1-(propan-2-yl)-1,2-dihydroquinolin-3-yl]oxy}-N-methylacetamide], under setting [1], the half-maximal degradation concentration (DC50) was < 10 nM and the maximal degradation (Dmax) lay within 50 to 70%.

Regarding `CNC(=O)COc1cc2cc(Nc3nc(N4CCC(N5CCC56CN(C5CCN(c7ccc8c(c7)CN(C7CCC(=O)NC7=O)C8=O)C5)C6)CC4)ncc3Cl)ccc2n(C(C)C)c1=O` (centres unmarked) [Compound 234, 2-{[6-({5-chloro-2-[4-(6-{1-[2-(2,6-dioxopiperidin-3-yl)-1-oxo-2,3-dihydro-1H-isoindol-5-yl]pyrrolidin-3-yl}-1,6-diazaspiro[3.3]heptan-1-yl)piperidin-1-yl]pyrimidin-4-yl}amino)-2-oxo-1-(propan-2-yl)-1,2-dihydroquinolin-3-yl]oxy}-N-methylacetamide], the DC50 is < 10 nM. The Dmax (T47D) lay within 50 to 70%.

For the compound `CNC(=O)COc1cc2cc(Nc3nc(N4CCC(O[C@H]5C[C@H](N6CCC(c7cc8c(cc7OC(C)C)C(=O)N(C7CCC(=O)NC7=O)C8=O)CC6)C5)CC4)ncc3Cl)ccc2n(C(C)C)c1=O` (some centres unmarked) [Compound 159, 2-[[6-[[5-chloro-2-[4-[3-[4-[2-(2,6-dioxo-3-piperidyl)-6-isopropoxy-1,3-dioxo-isoindolin-5-yl]-1-piperidyl]cyclobutoxy]-1-piperidyl]pyrimidin-4-yl]amino]-1-isopropyl-2-oxo-3-quinolyl]oxy]-N-methyl-acetamide], under setting [1], the DC50 was < 10 nM and the greatest degradation seen (Dmax) is ≥ 70%.

`CNC(=O)COc1cc2cc(Nc3nc(N4CCN(C(C)(C)C5CCN(c6cc7c(cc6OC)C(=O)N(C6CCC(=O)NC6=O)C7)CC5)CC4)ncc3Cl)ccc2n(C(C)C)c1=O` (centres unmarked) [Compound 112, 2-{[6-({5-chloro-2-[4-(2-{1-[2-(2,6-dioxopiperidin-3-yl)-6-methoxy-1-oxo-2,3-dihydro-1H-isoindol-5-yl]piperidin-4-yl}propan-2-yl)piperazin-1-yl]pyrimidin-4-yl}amino)-2-oxo-1-(propan-2-yl)-1,2-dihydroquinolin-3-yl]oxy}-N-methylacetamide]: under setting [1], the DC50 is < 10 nM and the maximal degradation (Dmax) is 50 to 70%.

In the case of `CNC(=O)COc1cc2cc(Nc3nc(N4CCC5(CC4)CC(CN4CCN(c6cccc7c6CN(C6CCC(=O)NC6=O)C7=O)CC4)C5)ncc3Cl)ccc2n(C(C)C)c1=O` (centres unmarked) [Compound 14, 2-{[6-({5-chloro-2-[2-({4-[2-(2,6-dioxopiperidin-3-yl)-1-oxo-2,3-dihydro-1H-isoindol-4-yl]piperazin-1-yl}methyl)-7-azaspiro[3.5]nonan-7-yl]pyrimidin-4-yl}amino)-2-oxo-1-(propan-2-yl)-1,2-dihydroquinolin-3-yl]oxy}-N-methylacetamide], under setting [1], the 50% degradation concentration (DC50) was < 10 nM and the maximal degradation (Dmax) was ≥ 70%.

Consider `CNC(=O)COc1cc2cc(Nc3nc(N4CCC(O[C@H]5C[C@H](N6C[C@@H](C)N(c7ccc8c(c7)CN(C7CCC(=O)NC7=O)C8=O)[C@@H](C)C6)C5)CC4)ncc3Cl)ccc2n(C(C)C)c1=O` (stereo partly drawn) [Compound 174, 2-({6-[(5-chloro-2-{4-[(1r,3r)-3-[(3R,5S)-4-[2-(2,6-dioxopiperidin-3-yl)-1-oxo-2,3-dihydro-1H-isoindol-5-yl]-3,5-dimethylpiperazin-1-yl]cyclobutoxy]piperidin-1-yl}pyrimidin-4-yl)amino]-2-oxo-1-(propan-2-yl)-1,2-dihydroquinolin-3-yl}oxy)-N-methylacetamide], for which, under setting [1], the DC50 was < 10 nM and the Dmax was ≥ 70%.

For the compound `CNC(=O)COc1cc2cc(Nc3nc(N4CCC(O[C@H]5C[C@H](N6CCC7(CN(c8ccc9c(c8)CN(C8CCC(=O)NC8=O)C9=O)C7)C6)C5)CC4)ncc3Cl)ccc2n(C(C)C)c1=O` (some centres unmarked) [Compound 344, 2-({6-[(5-chloro-2-{4-[(1r,3r)-3-{2-[2-(2,6-dioxopiperidin-3-yl)-1-oxo-2,3-dihydro-1H-isoindol-5-yl]-2,6-diazaspiro [3.4]octan-6-yl}cyclobutoxy]piperidin-1-yl}pyrimidin-4-yl)amino]-2-oxo-1-(propan-2-yl)-1,2-dihydroquinolin-3-yl}oxy)-N-methylacetamide], the half-maximal degradation concentration (DC50) was < 10 nM. Moreover, the Dmax (T47D) was < 50%.

As for `CNC(=O)COc1cc2cc(Nc3nc(N4CCC(O[C@H]5C[C@H](N6CC=C(c7ccc8c(c7Cl)CN(C7CCC(=O)NC7=O)C8=O)CC6)C5)CC4)ncc3Cl)ccc2n(C(C)C)c1=O` (some centres unmarked) [Compound 429, 2-({6-[(5-chloro-2-{4-[(1r,3r)-3-{4-[4-chloro-2-(2,6-dioxopiperidin-3-yl)-1-oxo-2,3-dihydro-1H-isoindol-5-yl]-1,2,3,6-tetrahydropyridin-1-yl}cyclobutoxy]piperidin-1-yl}pyrimidin-4-yl)amino]-2-oxo-1-(propan-2-yl)-1,2-dihydroquinolin-3-yl}oxy)-N-methylacetamide], the DC50 was < 10 nM. Further, where the note is “T47D”, the greatest degradation seen (Dmax) is ≥ 70%.

Values taken from patent publication US11986532B2 (Arvinas Operations, Inc., priority 2021, dated 2024).
